Data on four molecules can be found in patent US11628186B2, “Method and composition for the reduction of viral replication, duration and spread of the COVID-19 and the flu” (priority 2017, dated 2023).

The structures appear in SMILES notation. Read-outs that look alike come from different tables or passages of the source.

The test system of one series is tumors. The experiment in a line: Pre-inhalation of the formula before inhaled 3-bromopyruvate. The format is in vivo, rats. The procedure:
The problem with 3-bromopyruvate was its toxicity to normal lung cells. The formula needed to protect noncancerous cells from 3-bromopyruvate and to enhance its effect on tumors, was the addition of inhaled 20 mM solution of sodium pyruvate, calcium, phosphate, magnesium formula inhaled 1-2 hours prior to the inhalation of the 10 mg of 3-bromopyruvate. The investigators were given the sodium pyruvate with calcium, phosphate and magnesium formula and instructed to have the rats inhale the formula 1-2 hours prior the inhalation of the cancer drug. This approach reduced tumor sizes by 90% compared the 60% reduction with 3bromopyruvate by itself. The addition of dichloroacetate with 3-bromopyruvate to the sodium pyruvate with calcium, phosphate and magnesium formula was the best formula decreasing tumor loads by 95%, especially with the addition of magnesium bicarbonate that increased the PH to 7.9 to neutralize the lactic acid produced in tumors that enhance tumorigenesis.

A further series has as its system lung tumors. The settings on record: cited from earlier work.
Series [1] has as its system human lung cancer cell line. The settings on record: cited from earlier work.
Another series has as its system Smokers. The experiment in a line: Inhaled nicotine in pyruvate formulas.
The test system of series [2] is patients with chronic Hypoxemia. Nature of the series: Various drugs with or without pre-inhaled pyruvate formulas (Table VII). The format is in vivo, human. Conditions: in vivo. The procedure: With the hundreds of patients tested in our various clinical trials, data was gathered as to the type of medications the patients used and the frequency of their use over a six-month period. The patients were asked to rate their medications form 1-10 with 1 being the most irritating with the most side effects and 10 being the best with no irritation and no side effects. In these clinical trials, various drugs were evaluated for irritation, mucus production, and efficacy in humans. The drugs were all evaluated using their current formulations and concentrations against the same formulations with the addition of sodium pyruvate, with the calcium, phosphate and magnesium formula given just prior to the use of their medications. They were instructed to 20 inhale this formula just prior to the use of their medications and to evaluate the effect of their medications on the 1-10 scale.
Patients on the various inhaled medications whether inhaled or taken orally or by IV infusion, were enlisted in the evaluation of the inhaled sodium pyruvate calcium, phosphate and magnesium formula. The patients were tested for their SaO2 levels and those that had SaO2 levels below 92% were asked to enlist in the study. […] After the SaO2 levels were determined prior to and one hour after taking their medications, the patients returned the following day, SaO2 measurements were taken one hour prior to taking their medications. The patients were then handed the hypotonic inhalation formula of sodium pyruvate with calcium, phosphate magnesium formula and instructed to inhale it one hour before taking their medications, SaO2 measurements were then taken one hour after taking their medications.

In series [3] the test system is patients with lung diseases including COPD. Nature of the series: Comparison of inhaled salts of pyruvate, 5 ml of 0.5 mM solution (Table I). The procedure:
All previous studies using pyruvate to treat Allergic Rhinitis, Asthmatic and COPD patients used only the sodium salt form of pyruvic acid in saline. The drug products that were tested in the six Phase I/II clinical trial were differing concentrations of sodium pyruvate dissolved in 0.9% sodium chloride solution (Saline). These drug products contained 0.5 mM, 1.5 mM, or 5.0 mM of sodium pyruvate in physiological saline. They were administered to normal volunteers and COPD and asthmatics by inhalation therapy. […] Various sodium pyruvate solutions were evaluated in the lungs for their ability to enhance FEV1 values and reduce coughing, and lung tightness.
The amount of the salts delivered in the 5 ml's of the 0.5 mM pyruvate solutions were compared to the amounts of the salts in 5 ml's of human blood. […] When ethyl pyruvate reacts with oxygen radical like hydrogen peroxide, it is converted to ethane and alcohol and Co2 and acetate. Ethane and alcohol are lung irritants.
This formula can also be made by adding 3% calcium phosphate or dicalcium phosphate to the standard 0.5 mM to 30 mM sodium pyruvate saline solution see Table I.

Series [4] has the same test system. Nature of the series: Comparison of inhaled salts of pyruvate, 5 ml of 5 mM solution (Table II).
The nature of series [5]: Mucolytic activity with inhaled acetylcysteine. The format is in vivo, human. Conditions: with or versus commercial inhaled acetylcysteine.
For series [6], the system named is porcine respiratory coronavirus (PRCV). Nature of the series: Antiviral assay with NO donor in swine testicular (ST) cells. Format: cell-based. The settings on record: NO donor SNAP. How it is done:
We examined NO levels by Greiss assay in bronchoalveolar lavage (BAL) of pigs infected with either porcine respiratory coronavirus (PRCV). The antiviral effects of NO on this virus was tested in an in vitro system using a NO donor, S-nitroso-N-acetyl penicillamine (SNAP). We detected a large increase in NO levels in BAL fluids of PRCV-infected pigs. Pulmonary epithelial cell necrosis induced by PRCV coincided with increased NO. […] NO plays a role in innate immunity to respiratory CoV infections by inhibiting viral replication.

The subject of series [7] is Patients with a severe case of CIVID-19 infection. Format: in vivo, human. Conditions: 5 patients treated with just the gas.
In the next series the test system is SARS CoV. Format: cell-based.
For series [8] the following is noted: 1 atm, cited from earlier work.
Where [9] appears, read: aerosol, 10 mg/5 mL by inhalation, 8 weeks.
Setting [10] is: 5 ml of 0.5 mM solution, inhaled.

As for `O=C(O)C(=O)CBr` [3-bromopyruvate], the reduced tumor sizes in the series with tumors (20 mM sodium pyruvate, calcium, phosphate, magnesium formula inhaled 1-2 hours prior to 10 mg of 3-bromopyruvate) is 90%. Also, the “reduction of tumor sizes” value in the series with tumors (by itself) was 60%. Further, in the series on lung tumors (setting [9]), the decreased tumor load was 60% and the decreased tumor multiplicity is listed as 40%. In the series with lung tumors (aerosolized), the liver toxicity result is “did not accompany any liver toxicity”. Besides, the apoptosis result in series [1] is “induced apoptosis through caspase-3, and PARP”.
In the case of `CN1CCCC1c1cccnc1` (stereo not drawn) [Nicotine], the “ability of each patient to determine the effect of nicotine delayed” value in the series with Smokers (Nicotine delivered only with sodium pyruvate in saline solution) was found to be 26%. Also, the tolerability result in the series with Smokers (nicotine in modified formula sodium pyruvate and calcium, phosphate and magnesium, nasal or lungs) is on record as “well tolerated”. In addition, in series [2], the “SaO2 Measurements taken after medication and compared to baseline” value was −3; the “SaO2 Measurements taken after taking the medication and compared to baseline” value is given as “+2”; the “SaO2 measurements taken after taking medication and compared to baseline” value is recorded as “+4”.
As to `CC(=O)C(=O)N[C@@H](CS)C(=O)O` [Pyruvyl-cysteine], in series [3] (5 ml of 0.5 mM solution in physiological saline, inhaled), the “Increased in FEV-1% lung function” value amounted to 11%. Further, in series [3] (setting [10]), the “Percentage Increase in SaO2 over baseline” value is on record as 0%; the “Percentage decrease or increase of Nitric Oxide over baseline” value was determined as 0%; the “Relief of congestion, coughing and lung tightness” value turned out to be 5. Moreover, in series [3] (5 ml of 0.5 mM solution, 1 most negative, 10 best), the “Overall Rating 1-10” value is reported as 8. Further, the “Increased in FEV-1%” value in [4] (5 ml of 5 mM solution in saline, inhaled) was 5%. In series [4] (5 ml of 5 mM solution, inhaled), the “Percentage Increase in SaO2 over baseline” value was 0%; the “Percentage increase of Nitric Oxide over baseline” value was determined as 1%; the “Relief of congestion, coughing and lung tightness” value is 8. Further, the “Overall Rating 1-10” value in series [4] (5 ml of 5 mM solution, 1 most negative, 10 best) was 8. For the same molecule, in [5], the mucolytic activity result is listed as “as effective as acetylcysteine”.
For `[N]=O` [nitric oxide], the PRCV replication result in series [6] is “significantly inhibited PRCV replication”. Also, the “lung surfactants and lung fibrosis” value in [7] is “did not increase lung surfactants or reduce lung fibrosis”. In addition, the “replication cycle of SARS CoV” value with SARS CoV was “specifically inhibits the replication cycle of SARS CoV”. The figures for the solubility in water in series [8] (20° C.) and in [8] (60° C.) were 4.6 ml/100 ml and 2.37 ml/100 ml, respectively.
